Measurements: patent US20080038278A1, “GPAT3 encodes a mammalian, microsomal acyl-coa:glycerol 3- phosphate acyltransferase” (priority 2006, published 2008)

How the values were obtained:
hGPAT3 = molecular target: T1, hGPAT3 (Homo sapiens, UniProt Q53EU6); test: GPAT activity assay (TLC separation of LPA) in lysates of cells overexpressing hGPAT3; assay type: biochemical; conditions: for substrate concentration at half-maximal activity (hGPAT3-dependent LPA formation): hGPAT3 expressed in Sf9 cells, nonpurified lysate, other substrate at 100 μM; for increase in LPA formation conferred by hGPAT3 overexpression after NEM pretreatment: preincubated 15 min with NEM (0.4 mM, 0.4 μM elsewhere in the source)
T1 construct: full-length mouse and human GPAT3 were cloned by PCR amplification from cDNA libraries; made in house; host or cells: Sf9 insect cells (baculovirus, pFASTBAC1), total lysate; some experiments used lysates of HEK293 cells transfected with hGPAT3 in pcDNA3.1
T1 sequence (Q53EU6 1-434): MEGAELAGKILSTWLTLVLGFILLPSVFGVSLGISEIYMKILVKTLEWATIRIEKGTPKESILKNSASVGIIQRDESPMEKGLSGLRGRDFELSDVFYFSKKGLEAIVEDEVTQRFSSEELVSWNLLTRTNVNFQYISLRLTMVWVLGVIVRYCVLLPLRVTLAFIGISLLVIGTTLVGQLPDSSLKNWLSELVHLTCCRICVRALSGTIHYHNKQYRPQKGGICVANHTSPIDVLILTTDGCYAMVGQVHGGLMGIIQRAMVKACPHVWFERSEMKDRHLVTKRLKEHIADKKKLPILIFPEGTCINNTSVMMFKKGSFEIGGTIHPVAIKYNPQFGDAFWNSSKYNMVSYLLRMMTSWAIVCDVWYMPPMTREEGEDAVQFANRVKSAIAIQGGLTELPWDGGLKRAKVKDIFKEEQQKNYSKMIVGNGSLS
Source text: Sf9 cells were infected with recombinant baculovirus at an MOI of 10 for 64 hrs. Cell pellets were harvested in ice-cold phosphate-buffered saline (PBS), lysed by sonication or Parr bomb, and total lysate was used immediately for enzyme assay. For subcellular fractionation, cel.ls were lysed with a rapid nitrogen decompression method (Parr Instrument Company, IL), followed by differential centrifugation at 8,000g (mitochondrial fraction) and 1 00,000g (microsomal fraction). Total protein concentration was assayed using a Bio-Rad protein assay with bovine serum albumin (BSA) as a standard (Bio-Rad, Hercules, Calif.). GPAT activity was determined by measuring the conversion of glycerol 3-phosphate (G3 P) to 1-acyl-sn-glycerol 3-phosphate in the presence of acyl-CoA. Formation of enzymatic products was detected by either the conventional 1-butanol extraction method followed by scintillation counting, or by thin layer chromatography (TLC) separation followed by exposure to a phosphorimager screen. GPAT activity assay by I -butanol extraction was performed as described (Yet et al., supra; Haldar and Vancura (1992) Methods Enzymol. 209:64-72). Briefly, cell lysates containing 100 μg protein were incubated for 20 min at room temperature in 75 mM Tris HCl, pH 7.5, 4 mM MgCl2, 1 mg/ml fatty acid-free BSA, 8 mM NaF, 50 μM lauroyl-CoA, 3 mM glycerol 3-phosphate, and 1 μCi of [^3H]glycerol 3-phosphate (30 Ci/mmol, American Radiolabeled Chemicals, Inc., St. Louis, Mo.) in a total volume of 250 μl. The reaction was stopped by addition of 0.5 ml of water-saturated 1-butanol and 0.5 ml of 1-butanol-saturated water followed by a vigorous vortex for 5 min. After a brief spin, the top phase (butanol) was transferred to a fresh tube and washed again with 0.5 ml of butanol-saturated water. Finally, an aliquot of the butanol phase was mixed with scintillation cocktail to count radioactivity using Accurate Radioisotope Counting (ARC).
To assess the GPAT activity more precisely, a TLC separation procedure was utilized. […] For TLC, enzymatic products were identified using standards detected by exposure to […]. All quantitative data are expressed as mean±S.E. Statistical analyses for differences between two groups were carried out using a Student's t-test.
To further investigate the role of GPAT3 in TAG and/or phospholipid synthesis in mammalian cells, GPAT3 was overexpressed in HEK293 cells and the incorporation of [^14C]oleic acid into TAG or phospholipids was measured. […]

human mtGPAT1 = molecular target: T2, human mtGPAT1 (Homo sapiens, UniProt Q9HCL2); test: GPAT activity assay (TLC separation of LPA) in lysates of HEK293 cells overexpressing mtGPAT1; assay type: biochemical; conditions: preincubated 15 min with NEM
T2 construct: expressed in transfected cells; host or cells: HEK293 cells, transient transfection (FUGENE 6); total lysate assayed
T2 sequence (Q9HCL2 1-828): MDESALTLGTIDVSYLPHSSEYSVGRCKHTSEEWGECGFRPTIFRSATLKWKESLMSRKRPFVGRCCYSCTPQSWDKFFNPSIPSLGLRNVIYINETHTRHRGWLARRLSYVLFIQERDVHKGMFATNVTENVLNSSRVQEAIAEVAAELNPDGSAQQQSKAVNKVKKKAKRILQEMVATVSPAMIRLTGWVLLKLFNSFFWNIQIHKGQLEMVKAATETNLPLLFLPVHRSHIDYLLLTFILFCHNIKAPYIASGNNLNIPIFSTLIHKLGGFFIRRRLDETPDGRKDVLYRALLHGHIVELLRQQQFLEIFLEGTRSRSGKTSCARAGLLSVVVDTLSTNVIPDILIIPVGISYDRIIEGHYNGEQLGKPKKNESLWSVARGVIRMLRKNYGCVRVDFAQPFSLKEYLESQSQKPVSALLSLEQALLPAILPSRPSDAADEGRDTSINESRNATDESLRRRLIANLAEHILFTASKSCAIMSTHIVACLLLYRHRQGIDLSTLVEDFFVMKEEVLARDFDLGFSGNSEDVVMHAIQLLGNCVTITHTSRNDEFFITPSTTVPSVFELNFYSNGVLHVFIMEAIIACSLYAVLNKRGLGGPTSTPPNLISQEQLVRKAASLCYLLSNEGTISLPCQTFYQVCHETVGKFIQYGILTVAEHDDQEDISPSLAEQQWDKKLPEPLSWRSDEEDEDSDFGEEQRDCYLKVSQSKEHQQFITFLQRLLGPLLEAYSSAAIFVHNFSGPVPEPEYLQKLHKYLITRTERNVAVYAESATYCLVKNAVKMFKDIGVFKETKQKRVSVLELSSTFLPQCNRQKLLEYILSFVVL

mGPAT3 mRNA = mGPAT3 mRNA (Q-PCR) in white adipose tissue of ob/ob mice treated with PPARγ agonist; assay type: in vivo, mouse; conditions: 15 mg/kg gavage once a day for 21 days
Protocol: To confirm and extend the transcriptional profiling data, TAQMAN® (Applied Biosystems, Foster City, Calif.) real-time quantitative PCR (Q-PCR) analysis was performed using probes specific for mouse and human GPAT3. Briefly, undifferentiated and differentiated 3T3-L1 adipocytes, tissues from normal 8-12 week old male C57B1/6J mice, and tissues from 10-week old male ob/ob and age-matched wild type control mice were obtained as previously described (Lake et al., supra). For PPARγ agonist treatment, 10-week old male ob/ob mice were gavaged once a day with 15 mg/kg rosiglitazone or vehicle control for 21 days. RNA and cDNA were prepared as previously described (Lake et al., supra). Gene profiling data were generated using the MOE430 chip according to the manufacturer's recommendations (Affymetrix, Santa Clara, Calif.). Q-PCR was performed using an ABI PRISM® 7900 sequence detector (Applied Biosystems, Foster City, Calif.) with 18s as an internal control as described (Lake et al., supra). Gene-specific primers and probes were obtained from Applied Biosystems (Cat. Nos. mm00554802_ml and Hs00262010_ml). Relative expression was determined by the […] (Applied Biosystems, Foster City, Calif.).
PPARγ agonists such as rosiglitazone induce expression of the lipogenic program in adipose tissue (Rosen and Spiegelman (2001) J. Biol. Chem. 276:37731-34). […]

O=P(O)(O)OCC(O)CO (stereo not drawn) [G3P, glycerol 3-phosphate]
substrate concentration at half-maximal activity (hGPAT3-dependent LPA formation) (hGPAT3): ~80 µM

CCN1C(=O)C=CC1=O [NEM, N-ethylmaleimide]
increase in LPA formation conferred by hGPAT3 overexpression after NEM pretreatment (hGPAT3; HEK293 lysates): completely abolished
increase in LPA formation conferred by hGPAT3 overexpression after NEM pretreatment (hGPAT3; Sf-9 lysates): completely abolished
mtGPAT1-dependent LPA formation after NEM pretreatment (human mtGPAT1): not affected

CCCCCCCCCCCC(=O)SCCNC(=O)CCNC(=O)[C@H](O)C(C)(C)COP(=O)(O)OP(=O)(O)OC[C@H]1O[C@@H](n2cnc3c(N)ncnc32)[C@H](O)[C@@H]1OP(=O)(O)O [lauroyl-CoA]
substrate concentration at half-maximal activity (hGPAT3-dependent LPA formation) (hGPAT3): ~25 µM

CN(CCOc1ccc(CC2SC(=O)NC2=O)cc1)c1ccccn1 (stereo not drawn) [rosiglitazone]
induced expression of mGPAT3 mRNA in white adipose tissue over control (mGPAT3 mRNA): 4.5 fold
